Data reported in patent US8975232B2, “Macrocyclic kinase inhibitors and uses thereof” (President and Fellows of Harvard College, priority 2010, dated 2015).
Blank lines part the entries; values can stand above or below the compound they belong to. *1 amine or outer side, *2 acyl side, *3 side chain or, on linkers, in order; H or OH if unused. Where a SMILES comes first, the peptide text is derived from it. Bridges are numbered along the chain shown (N, C = ends). [ ]: non-standard residue; d: D form. The star is where a group is joined. Ala(E-styryl) = N[C@@H](C/C=C/c1ccccc1)C(=O)O; dBpa = N[C@H](Cc1ccc(C(=O)c2ccccc2)cc1)C(=O)O; Maleoyl = O=C(/C=C\C(=O)[*:2])[*:1]; NH(CH2CH2O)2CH2CH2NH2 = NCCOCCOCCN*; Cha = N[C@@H](CC1CCCCC1)C(=O)O; Dab = NCC[C@H](N)C(=O)O; Dap = NC[C@H](N)C(=O)O

Assays:
[1] = molecular target: T1, full-length chicken c-Src (Gallus gallus, UniProt P00523); assay: Z'-LYTE kinase assay (Tyr 02 substrate peptide), full-length c-Src; format: biochemical
T1 construct: assayed against full-length chicken c-Src
Procedure: For the FRET-based endpoint assay, kinase assays were performed using Invitrogen's Z′-LYTE kinase assay using the Tyr 02 substrate peptide (based upon the optimal Abl substrate peptide […]) according to the manufacturer's instructions. Assays were performed at near KM ATP concentrations for full-length c-Src and full-length c-Src T338I-50 μM and 7 μM, respectively.
Derivatives of MC4 were synthesized by Fmoc solid-phase peptide synthesis and assayed against full-length chicken c-Src using Invitrogen's Z′-LYTE kinase assay. […] Holding the amino acids at the A and C positions constant, variants of MC4 containing phenylalanine, cyclohexylalanine, pentafluorophenylalanine, and N-methyl-phenylalanine at the B position in place of furylalanine were synthesized and assayed.

Abl = molecular target: T2, Abl (Homo sapiens, UniProt P00519); assay: Continuous spectrophotometric kinase activity assay; format: biochemical
T2 construct: human c-Abl (residues 229-512); made in house
T2 sequence (P00519 229-512): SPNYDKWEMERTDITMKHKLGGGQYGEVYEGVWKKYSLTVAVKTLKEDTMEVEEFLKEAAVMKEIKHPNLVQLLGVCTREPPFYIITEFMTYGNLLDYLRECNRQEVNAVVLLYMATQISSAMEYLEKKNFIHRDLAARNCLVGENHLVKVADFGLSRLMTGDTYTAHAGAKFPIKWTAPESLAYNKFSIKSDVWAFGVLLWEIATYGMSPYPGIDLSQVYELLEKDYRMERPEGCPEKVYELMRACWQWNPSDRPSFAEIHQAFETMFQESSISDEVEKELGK
Text: (§1) Kinase domain constructs of human c-Abl (residues 229-512), chicken c-Src (residues 251-533 and residues 83-533), murine Lck (residues 227-509), and human Hck (residues 166-445) were expressed as previously described (Seeliger, Young et al. 2005; Seeliger, Nagar et al. 2007; the entire contents of each of which are incorporated by reference herein). Mutations were introduced into chicken c-Src (residues 251-533) (T338I, C277Q, L297M) by site-directed mutagenesis and verified by DNA sequencing.
(§2) In vitro kinase inhibition assays were performed using either a continuous spectrophotometric assay or a FRET-based endpoint assay.
(§3) The original characterization of kinase inhibition was performed with a commercial kinase assay that relies on a fluorescently labeled peptide kinase substrate (Z-LYTE, Invitrogen). For further characterization, a continuous spectrophotometric kinase activity assay was employed that is easily adapted to different substrate peptides as well as a wider range of peptide and ATP concentrations.

[2] = molecular target: T3, Src kinase domain (chicken c-Src residues 251-533) (Gallus gallus, UniProt P00523); assay: as above; format: biochemical; conditions: Src kinase domain
T3 construct: chicken c-Src (residues 251-533 and residues 83-533); made in house
Text: as §1, §2, §3

Lck = molecular target: T4, Lck (Mus musculus, UniProt P06240); assay: as above; format: biochemical, murine
T4 construct: murine Lck (residues 227-509); made in house
T4 sequence (P06240 227-509): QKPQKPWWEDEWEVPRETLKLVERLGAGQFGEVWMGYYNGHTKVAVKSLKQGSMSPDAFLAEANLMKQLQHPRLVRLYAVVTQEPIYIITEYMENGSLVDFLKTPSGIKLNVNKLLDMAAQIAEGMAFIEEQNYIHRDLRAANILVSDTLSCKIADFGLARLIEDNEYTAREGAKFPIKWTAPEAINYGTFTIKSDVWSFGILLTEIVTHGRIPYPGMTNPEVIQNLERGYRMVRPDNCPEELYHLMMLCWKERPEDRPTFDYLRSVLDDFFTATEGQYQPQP
Text: as §1, §2, §3

HCK = HCK (Homo sapiens, UniProt P08631); assay: as above; format: biochemical; set-up: Kinase domain constructs of human c-Abl (residues 229-512), chicken c-Src (residues 251-533 and residues 83-533), murine Lck (residues 227-509), and human Hck (residues 166-445); made in house; conditions: 300 μM Src optimal peptide
Sequence of HCK (P08631 262-515 limits assumed): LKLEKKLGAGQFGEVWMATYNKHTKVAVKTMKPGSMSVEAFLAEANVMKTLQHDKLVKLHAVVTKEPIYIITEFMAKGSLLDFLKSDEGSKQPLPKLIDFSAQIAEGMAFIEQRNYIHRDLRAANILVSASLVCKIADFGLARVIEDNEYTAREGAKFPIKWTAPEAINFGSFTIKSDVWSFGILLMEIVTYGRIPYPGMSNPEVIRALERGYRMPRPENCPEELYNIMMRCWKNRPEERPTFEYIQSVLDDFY
Text: as §1, §2, §3

Src kinase = Src kinase (Homo sapiens, UniProt P12931); assay: Z'-LYTE kinase assay (Invitrogen), Src; format: biochemical; set-up: full-length kinase in the Z-LYTE assay vs. kinase domain in the current study; purchased Millipore; conditions: for Src kinase inhibition (in words): non-DNA-linked compound; for IC50: Z'-LYTE, ATP near KM
Sequence of Src kinase (P12931 whole entry, the tested form may be a part): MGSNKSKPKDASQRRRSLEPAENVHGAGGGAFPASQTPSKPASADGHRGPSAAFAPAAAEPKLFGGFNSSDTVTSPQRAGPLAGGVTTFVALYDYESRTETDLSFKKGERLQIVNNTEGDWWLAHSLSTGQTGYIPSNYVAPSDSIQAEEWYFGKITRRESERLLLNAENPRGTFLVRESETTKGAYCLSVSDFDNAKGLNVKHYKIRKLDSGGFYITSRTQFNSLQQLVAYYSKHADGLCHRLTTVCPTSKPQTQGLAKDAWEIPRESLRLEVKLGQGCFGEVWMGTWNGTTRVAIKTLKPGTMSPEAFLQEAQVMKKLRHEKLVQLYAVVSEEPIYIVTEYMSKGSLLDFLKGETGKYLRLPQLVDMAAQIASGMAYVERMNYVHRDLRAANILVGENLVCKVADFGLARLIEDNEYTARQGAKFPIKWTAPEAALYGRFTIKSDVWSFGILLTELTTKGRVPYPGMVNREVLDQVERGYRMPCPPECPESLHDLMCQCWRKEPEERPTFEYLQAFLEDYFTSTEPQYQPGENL
Procedure: Nine macrocycles enriched in the Src selection (FIG. 5) and synthesized as described above were assayed in vitro for the ability to inhibit Src kinase activity. Kinase activity was assayed in the presence of varying concentrations of macrocycle using the FRET-based Z′-LYTE assay (Invitrogen).
(§4) Src IC50 determinations and single-point inhibition measurements were performed using Invitrogen's Z′-LYTE Tyr 02 assay kit according to the manufacturer's protocols. All kinase assays were performed at ATP concentrations near KM,ATP values, except where noted otherwise. Active human Src kinase was obtained from Millipore. For kinome profiling and IC50 determinations against non-Src kinases, compounds were submitted to Invitrogen's SelectScreen Kinase Profiling Service.

Pim1 = Pim1 (Homo sapiens, UniProt P11309); assay: Z'-LYTE kinase assay (Invitrogen SelectScreen); format: biochemical; conditions: Pim1
Sequence of Pim1 (P11309 whole entry): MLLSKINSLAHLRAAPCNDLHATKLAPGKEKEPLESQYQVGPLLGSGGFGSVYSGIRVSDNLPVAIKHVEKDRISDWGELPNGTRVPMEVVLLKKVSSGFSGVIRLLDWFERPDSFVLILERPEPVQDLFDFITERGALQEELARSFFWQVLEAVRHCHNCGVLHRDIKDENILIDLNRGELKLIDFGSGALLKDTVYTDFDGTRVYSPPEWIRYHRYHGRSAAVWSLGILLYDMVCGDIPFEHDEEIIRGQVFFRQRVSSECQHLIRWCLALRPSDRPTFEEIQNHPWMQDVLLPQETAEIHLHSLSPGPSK
Text: (§5) Macrocycles A10-B1-C11-D5 and A10-B8-C11-D5 were enriched 2- to 6-fold upon selection for binding Akt3, MAPKAPK2, Pim1, and VEGFR2 (FIG. 6). These two macrocycles are structurally similar, sharing nitrophenylalanine (A10) and cyclohexylstatine (C11) building blocks as well as the same lysine scaffold (D5), and differ only at the B building block with either furylalanine (B1) or cyclohexylalanine (B8) (FIG. 6). For assay purposes, the macrocycles were synthesized with C-terminal PEG-diamine linkers to aid solubility, and then tested for the ability to inhibit Akt3, MAPKAPK2, Pim1 and VEGFR2.
as §4

[3] = molecular target: p38α-MAPKAPK2 kinase cascade (P38α-MK2) (Homo sapiens, UniProt P49137+Q16539); assay: Z'-LYTE kinase cascade assay (Invitrogen SelectScreen); format: biochemical
Sequence of p38α-MAPKAPK2 kinase cascade (P38α-MK2) (Q16539 whole entry): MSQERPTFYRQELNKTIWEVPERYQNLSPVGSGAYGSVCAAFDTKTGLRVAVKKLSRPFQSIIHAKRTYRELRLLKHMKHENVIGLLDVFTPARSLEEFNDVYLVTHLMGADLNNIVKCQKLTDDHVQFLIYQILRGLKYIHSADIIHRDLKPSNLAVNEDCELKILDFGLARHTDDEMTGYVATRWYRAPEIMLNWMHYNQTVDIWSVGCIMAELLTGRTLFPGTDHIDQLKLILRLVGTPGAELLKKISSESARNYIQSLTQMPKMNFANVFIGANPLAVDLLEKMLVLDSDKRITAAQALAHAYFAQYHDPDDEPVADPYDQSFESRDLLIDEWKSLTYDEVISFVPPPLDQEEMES
Sequence of p38α-MAPKAPK2 kinase cascade (P38α-MK2) (P49137 whole entry): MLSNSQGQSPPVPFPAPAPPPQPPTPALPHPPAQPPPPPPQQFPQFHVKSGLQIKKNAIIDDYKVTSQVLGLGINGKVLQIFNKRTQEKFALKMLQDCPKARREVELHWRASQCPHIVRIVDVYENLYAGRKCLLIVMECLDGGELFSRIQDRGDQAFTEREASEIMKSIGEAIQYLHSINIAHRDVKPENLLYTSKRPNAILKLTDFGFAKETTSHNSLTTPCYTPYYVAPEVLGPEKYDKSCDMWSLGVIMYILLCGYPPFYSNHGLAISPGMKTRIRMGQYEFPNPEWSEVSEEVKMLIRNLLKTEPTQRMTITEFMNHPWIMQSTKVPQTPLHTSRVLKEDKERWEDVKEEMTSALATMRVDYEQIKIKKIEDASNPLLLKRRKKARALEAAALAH
Text: as §5, §4

[4] = 5 μM ATP, 100 μM Src optimal peptide
[5] = 5 μM ATP, 300 μM Src optimal peptide
[6] = 250 μM ATP, 300 μM Src optimal peptide

IC50 (Src kinase): 10 µM
SMILES: C=CC[C@@H]1NC(=O)/C=C\C(=O)N[C@H](C(N)=O)CCNC(=O)[C@H](CCCNC(=O)c2cnccn2)NC(=O)[C@H](Cc2ccco2)NC1=O [cis-A11-B1-C3-D7]

IC50 (Src kinase): 85 µM
SMILES: NC(=O)[C@@H]1CCCCNC(=O)[C@H](CCCNC(=O)c2cnccn2)NC(=O)[C@H](Cc2ccco2)NC(=O)[C@H](CC2CC2)NC(=O)/C=C\C(=O)N1 [cis-A11-B1-C5-D5]

IC50 (Src kinase): 7 µM
SMILES: NC(=O)[C@@H]1CCNC(=O)[C@H](CCCNC(=O)c2cnccn2)NC(=O)[C@H](Cc2ccco2)NC(=O)[C@H](C/C=C/c2ccccc2)NC(=O)/C=C\C(=O)N1 [cis-A11-B1-C10-D7]

IC50 (Src kinase): 36 µM
SMILES: NC(=O)[C@@H]1CCNC(=O)[C@H](CCCNC(=O)c2cnccn2)NC(=O)[C@H](CC2CCCCC2)NC(=O)[C@H](CC2CC2)NC(=O)/C=C\C(=O)N1 [cis-A11-B8-C5-D7]

IC50 (Src kinase): > 100 µM
SMILES: CS(=O)(=O)CC[C@@H]1NC(=O)[C@H](Cc2ccco2)NC(=O)[C@H](CC2CC2)NC(=O)/C=C/C(=O)N[C@H](C(N)=O)CCNC1=O [trans-A9-B1-C5-D7]

IC50 (Src kinase): 48 µM
SMILES: C=CC[C@@H]1NC(=O)/C=C/C(=O)N[C@H](C(N)=O)CCNC(=O)[C@H](CCCNC(=O)c2cnccn2)NC(=O)[C@H](Cc2ccco2)NC1=O [trans-A11-B1-C3-D7]

IC50 (Src kinase): > 100 µM
SMILES: NC(=O)[C@@H]1CCCCNC(=O)[C@H](CCCNC(=O)c2cnccn2)NC(=O)[C@H](Cc2ccco2)NC(=O)[C@H](CC2CC2)NC(=O)/C=C/C(=O)N1 [trans-A11-B1-C5-D5]

IC50 (Src kinase): 12 µM
SMILES: NC(=O)[C@@H]1CCNC(=O)[C@H](CCCNC(=O)c2cnccn2)NC(=O)[C@H](Cc2ccco2)NC(=O)[C@H](CC2CC2)NC(=O)/C=C/C(=O)N1 [trans-A11-B1-C5-D7]

IC50 (Src kinase): 21 µM
SMILES: NC(=O)[C@@H]1CCNC(=O)[C@H](CCCNC(=O)c2cnccn2)NC(=O)[C@H](Cc2ccco2)NC(=O)[C@H](C/C=C/c2ccccc2)NC(=O)/C=C/C(=O)N1 [trans-A11-B1-C10-D7]

IC50 (Src kinase): > 100 µM
SMILES: NC(=O)[C@@H]1CCNC(=O)[C@H](CCCNC(=O)c2cnccn2)NC(=O)[C@H](CC2CCCCC2)NC(=O)[C@H](CC2CC2)NC(=O)/C=C/C(=O)N1 [trans-A11-B8-C5-D7]

IC50 (Src kinase): > 100 µM
SMILES: NC(=O)[C@@H]1CCNC(=O)[C@H](CCCNC(=O)c2cnccn2)NC(=O)[C@H](CC2CCCCC2)NC(=O)[C@H](C/C=C/c2ccccc2)NC(=O)/C=C/C(=O)N1 [trans-A11-B8-C10-D7]

The remaining lines, values behind:

SMILES: NC(=O)[C@@H]1CCCNC(=O)[C@H](Cc2ccc([N+](=O)[O-])cc2)NC(=O)[C@H](Cc2ccccc2)NC(=O)[C@H](CC2CC2)NC(=O)/C=C/C(=O)N1 [MC4.1]
increase in Src inhibition potency relative to parent macrocycle [1]: 3 fold
IC50 ([1]; full-length chicken c-Src, ATP near KM (50 μM)): 0.08 µM
IC50 (Abl; [4]): > 100 µM
IC50 (Abl; [5]): > 100 µM
IC50 (Abl; [6]): > 100 µM
IC50 [2, 4]: 0.6 µM
IC50 [2, 5]: 0.8 µM
IC50 [2, 6]: 1.8 µM
IC50 (Lck; [4]): 5.2 µM
IC50 (Lck; [5]): 5.5 µM
IC50 (Lck; [6]): 10 µM
IC50 (HCK; 5 μM ATP): 6.3 µM
IC50 (HCK; 250 μM ATP): 11 µM

SMILES: CS(=O)(=O)CC[C@@H]1NC(=O)[C@H](Cc2ccco2)NC(=O)[C@H](CC2CC2)NC(=O)C=CC(=O)N[C@H](C(N)=O)CCNC1=O [Macrocycle A9-B1-C5-D7]
Src kinase inhibition (in words) (Src kinase): did not inhibit Src

SMILES: NC(=O)[C@@H]1CCCNC(=O)[C@H](Cc2ccc([N+](=O)[O-])cc2)NC(=O)[C@H](Cc2ccco2)NC(=O)[C@H](CC2CC2)NC(=O)C=CC(=O)N1 [Macrocycle A10-B1-C5-D6]
difference in potency between cis and trans stereoisomers (Src) (Src kinase): ~10 fold

SMILES: NC(=O)[C@@H]1CCNC(=O)[C@H](Cc2ccc([N+](=O)[O-])cc2)NC(=O)[C@H](Cc2ccco2)NC(=O)[C@H](CC2CC2)NC(=O)/C=C\C(=O)N1 [cis-A10-B1-C5-D7]
IC50 (Src kinase): 8.9 µM

SMILES: NCCOCCOCCNC(=O)[C@@H]1CCNC(=O)/C=C\C(=O)N[C@@H](C/C=C/c2ccccc2)C(=O)N[C@@H](CC2CCCCC2)C(=O)N[C@H](Cc2ccc(C(=O)c3ccccc3)cc2)C(=O)N1 [cis-A12-B8-C10-D3] ([Ala(E-styryl)][Cha][dBpa][Dab]-{NH(CH2CH2O)2CH2CH2NH2}; linker N-4 via Maleoyl)
IC50 (Pim1): 25 µM
IC50 [3]: 12 µM

SMILES: NCCOCCOCCNC(=O)[C@@H]1CNC(=O)/C=C\C(=O)N[C@@H](C/C=C/c2ccccc2)C(=O)N[C@@H](CC2CCCCC2)C(=O)N[C@H](Cc2ccc(C(=O)c3ccccc3)cc2)C(=O)N1 [cis-A12-B8-C10-D4] ([Ala(E-styryl)][Cha][dBpa][Dap]-{NH(CH2CH2O)2CH2CH2NH2}; linker N-4 via Maleoyl)
IC50 (Pim1): 100 µM
IC50 [3]: 20 µM

SMILES: NC(=O)[C@@H]1CCNC(=O)[C@H](Cc2ccc([N+](=O)[O-])cc2)NC(=O)[C@H](Cc2ccco2)NC(=O)[C@H](CC2CC2)NC(=O)/C=C/C(=O)N1 [trans-A10-B1-C5-D7]
IC50 (Src kinase): 1.5 µM

SMILES: NC(=O)[C@@H]1CCCNC(=O)[C@H](Cc2ccccc2)NC(=O)[C@H](Cc2ccco2)NC(=O)[C@H](CC2CC2)NC(=O)/C=C/C(=O)N1 [trans-Phe-B1-C5-D6]
Src kinase inhibition (in words) (Src kinase): abolished Src inhibition
